# Test results: PubChem BioAssay AID1919000 (Molecular Pharmacology Branch, DTP, NCI, 2023)
# System: 653999-131-R-J2-PDC complex spheroids, growth % test/control
# Experiment: Anticancer human tumor 653999-131-R-J2-PDC patient-derived lung adenocarcinoma cell line growth inhibition [AhR]
# Settings: for IC50: curve of first compound; for viability, T/C: stronger effect = lower value
# Procedure, shortened: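 Complex tumor spheroids co-cultured with HUVEC and human MSC stroma; AhR antagonists tested in combination with standard-of-care and investigational agents. Top concentration at or near clinical Cmax (else 10 microM), half-log dilutions; growth expressed as percent test/control.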
# [1] = second compound 0.1 µM, first compound 0.0316 µM
# [2] = second compound 0.1 µM, first compound 0.1 µM
# [3] = second compound 0.1 µM, first compound 0.316 µM
# [4] = second compound 0.1 µM, first compound 1 µM
# [5] = second compound 0.1 µM, first compound 3.16 µM
# [6] = second compound 0.1 µM, first compound 10 µM
# [7] = second compound 0.316 µM, first compound 0.0316 µM
# [8] = second compound 0.316 µM, first compound 0.1 µM
# [9] = second compound 0.316 µM, first compound 0.316 µM
# [10] = second compound 0.316 µM, first compound 1 µM
# [11] = second compound 0.316 µM, first compound 3.16 µM
# [12] = second compound 0.316 µM, first compound 10 µM
# [13] = second compound 1 µM, first compound 0.0316 µM
# [14] = second compound 1 µM, first compound 0.1 µM
# [15] = second compound 1 µM, first compound 0.316 µM
# [16] = second compound 1 µM, first compound 1 µM
# [17] = second compound 1 µM, first compound 3.16 µM
# [18] = second compound 1 µM, first compound 10 µM
# [19] = second compound 3.16 µM, first compound 0.0316 µM
# [20] = second compound 3.16 µM, first compound 0.1 µM
# [21] = second compound 3.16 µM, first compound 0.316 µM
# [22] = second compound 3.16 µM, first compound 1 µM
# [23] = second compound 3.16 µM, first compound 3.16 µM
# [24] = second compound 3.16 µM, first compound 10 µM
# [25] = second compound 10 µM, first compound 0.0316 µM
# [26] = second compound 10 µM, first compound 0.1 µM
# [27] = second compound 10 µM, first compound 0.316 µM
# [28] = second compound 10 µM, first compound 1 µM
# [29] = second compound 10 µM, first compound 3.16 µM
# [30] = second compound 10 µM, first compound 10 µM
# 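Note: spheroids exposed to agents for seven days.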
# 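Throughout, for viability, T/C: 100% = DMSO vehicle control viability.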
SMILES,IC50 (second compound 0.1 µM),IC50 (second compound 0.316 µM),IC50 (second compound 1 µM),IC50 (second compound 3.16 µM),IC50 (second compound 10 µM),"viability, T/C [1]","viability, T/C [2]","viability, T/C [3]","viability, T/C [4]","viability, T/C [5]","viability, T/C [6]","viability, T/C [7]","viability, T/C [8]","viability, T/C [9]","viability, T/C [10]","viability, T/C [11]","viability, T/C [12]","viability, T/C [13]","viability, T/C [14]","viability, T/C [15]",further results
O=C(C=Cc1cccc(S(=O)(=O)Nc2ccccc2)c1)NO + Cc1cncc(-c2nc(NCCc3c[nH]c4ccccc34)c3ncn(C(C)C)c3n2)c1,2.99 µM,3.32 µM,3.3 µM,3.48 µM,1.46 µM,91.4%,96.3%,88%,74.5%,49.2%,10.7%,94.1%,96.7%,89%,76.5%,52.2%,10.6%,95.8%,104%,98.3%,"viability, T/C [16]: 91.2%; viability, T/C [17]: 51.6%; viability, T/C [18]: 9.38%; viability, T/C [19]: 104%; viability, T/C [20]: 99.5%; viability, T/C [21]: 95.1%; viability, T/C [22]: 79.3%; viability, T/C [23]: 53.7%; viability, T/C [24]: 11.8%; viability, T/C [25]: 54.7%; viability, T/C [26]: 50.4%; viability, T/C [27]: 50.4%; viability, T/C [28]: 51.7%; viability, T/C [29]: 46.9%; viability, T/C [30]: 8.52%"
CC(C)c1c(-c2ccccc2)nc2c(C#N)c[nH]n2c1=O + Cc1ccccc1N=Nc1ccc(NC(=O)c2ccnn2C)c(C)c1,> 10 µM,> 10 µM,> 10 µM,> 10 µM,> 10 µM,97.4%,101%,107%,95.6%,98.5%,99.1%,96.5%,105%,103%,98.9%,98.2%,111%,106%,126%,108%,"viability, T/C [16]: 105%; viability, T/C [17]: 109%; viability, T/C [18]: 104%; viability, T/C [19]: 99.4%; viability, T/C [20]: 115%; viability, T/C [21]: 107%; viability, T/C [22]: 92.8%; viability, T/C [23]: 90.3%; viability, T/C [24]: 105%; viability, T/C [25]: 97.5%; viability, T/C [26]: 105%; viability, T/C [27]: 111%; viability, T/C [28]: 92.7%; viability, T/C [29]: 107%; viability, T/C [30]: 108%"
